{"source": "patent US10570104B2", "about": "“Metabolically programmed metal chelators and uses thereof” (University of Florida Research Foundation, Incorporated, priority 2015, dated 2020)", "key": {"[1]": {"experiment": "log Papp, octanol/TRIS buffer pH 7.4, shake flask direct method", "type": "physicochemical", "settings": "not told", "description": "The redesign of 2 was predicated on the observation that both ligands 2 and 3 were orally active iron chelators in rodents and primates (Table 1), and that when the 4′-(OH) of 2 was methylated, providing (S)-4,5-dihydro-2-(2-hydroxy-4-methoxyphenyl)-4-methyl-4-thiazolecarboxylic acid^43 [(S)-4′-(CH3O)-DADFT, 4], there was a remarkable enhancement in both ICE and lipophilicity (log Papp). The log Papp data are expressed as the log of the fraction of the chelator seen in the octanol layer; measurements were done in TRIS buffer, pH 7.4, using a “shake flask” direct method.^49 The more negative the log Papp, the less chelator is in the octanol phase, the less lipophilic. Unfortunately, the increase in ICE of 4 came with a concomitant increase in toxicity.^50 Thus, the delicate balance between the increase in ICE and toxicity with enhanced lipophilicity needed to be understood and exploited."}, "[2]": {"experiment": "Chelator-induced iron clearance (ICE) in iron-overloaded Cebus apella primates", "type": "in vivo, Cebus apella monkeys", "settings": "75 μmol/kg, monosodium salt", "method": "Iron Loading of Cebus apella Monkeys. The monkeys (3.5-6.5 kg) were iron overloaded with intravenous iron dextran as specified in earlier publications to provide about 500 mg of iron per kg of body weight; the serum transferrin iron saturation rose to between 70 and 80%.^38,40 At least 20 half-lives, 60 days, elapsed before any of the animals were used in experiments evaluating iron-chelating agents.\nPrimate Fecal and Urine Samples. Fecal and urine samples were collected at 24 hours intervals and processed as described previously^38,40,74 Briefly, the collections began 4 days prior to the administration of the test drug and continued for an additional 5 days after the drug was given. Iron concentrations were determined by flame absorption spectroscopy as presented in other publications.^38′^40\nDrug Preparation and Administration.\nCalculation of Chelator Iron Clearing Efficiency (ICE)."}, "[3]": {"settings": "for Rat ICE (%): 300 μmol/kg, monosodium salt", "protocol": "Sample collection and handling are as previously described.^38,40\nDrug Preparation and Administration. In the iron clearing experiments, the rats were given 8-14 orally at a dose of 300 μmol/kg. […] The chelators were administered as their monosodium salts (prepared by the addition of 1 equiv of NaOH to a suspension of the free acid in distilled water).\nCalculation of Chelator Iron Clearing Efficiency (ICE). The term “ICE” is used as a measure of the amount of iron excretion induced by a chelator. The ICE, expressed as a percent, is calculated as (ligand-induced iron excretion/theoretical iron excretion)×100. […] The theoretical iron outputs of the chelators were generated on the basis of a 2:1 ligand:iron complex. The efficiencies in the rats and monkeys were calculated as set forth elsewhere.^37 Data are presented as the mean±the standard error of the mean; p-values were generated via a one-tailed Student's t-test in which the inequality of variances was assumed, and a p-value of <0.05 was considered significant."}, "[4]": {"experiment": "Tissue distribution/metabolism of chelators in rats given sc (HPLC)", "type": "in vivo, Sprague-Dawley rats", "method": "Collection of Chelator Tissue Distribution Samples from Rodents. Male Sprague-Dawley rats (250-350 g) were given a single subcutaneously injection of the monosodium salts of 8 and 11 prepared as described above at a dose of […]. At times 0.5, 1, 2, 4 and 8 hours after dosing (n=3 rats per time point), the animals were euthanized by exposure to CO2 gas. Blood was obtained via cardiac puncture into vacutainers containing sodium citrate. The blood was centrifuged, and the plasma was separated for analysis. The liver, kidney, heart, and pancreas were removed from the animals and frozen.\nTissue Analytical Methods. Tissue samples of animals treated with 8 were prepared for HPLC analysis by homogenizing them in H2O at a ratio of 1:1 (w/v). Then, as a rinse, CH3OH at a ratio of 1:3 (w/v) was added, and the mixture was stored at −20° C. for 30 min. This homogenate was centrifuged. The supernatant was diluted with H2O, vortexed, and filtered with a 0.2 μm membrane. Analytical separation was performed on a Supelco Discovery RP Amide C16 HPLC system with UV detection at 310 nm as described previously.^44,75 Mobile phase and chromatographic conditions were as follows: solvent A, 5% CH3CN/95% buffer (25 mM KH2PO4+2.5 mM 1-octanesulfonic acid, pH 3.0); solvent B, 60% CH3CN/40% buffer.\nTissue samples of animals treated with 11 were prepared for HPLC analysis by homogenizing them in 0.5 N HClO4 at a ratio of 1:3 (w/v). Then, as a rinse, CH3OH at a ratio of 1:3 (w/v) was added, and the mixture was stored at −20° C. for 30 min. This homogenate was centrifuged. The supernatant was diluted with 95% buffer (25 mM KH2PO4, pH 3.0)/5% CH3CN, vortexed, and filtered with a 0.2 μm membrane. Analytical separation was performed on a Supelco Ascentis Express RP-Amide HPLC system with UV detection at 310 nm as described previously. Mobile phase and chromatographic conditions were as for 8.\nLigand concentrations were calculated from the peak area fitted to calibration curves by nonweighted least-squares linear regression with Shimadzu Class-VP 7.4 software."}}, "note": "“Also recorded” adds a separate entry of the source. Read-outs that look alike come from different tables or passages of the source."}
{"smiles": "C[C@]1(C(=O)O)CSC(c2ccc(OCCOCCO)cc2O)=N1", "note": "[Compound 8, (S)-4,5-dihydro-2-[2-hydroxy-4-(5-hydroxy-3-oxapentyloxy)phenyl]-4-methyl-4-thiazolecarboxylic acid]", "values": [{"measurement": "Log Papp", "setting": "[1]", "value": "−0.53"}, {"measurement": "Cebus ICE (%)", "setting": "[2]; po", "value": "9.8±3.4", "unit": "%"}, {"measurement": "Rat ICE (%)", "setting": "[3]; po", "value": "15.4 ± 5.6", "unit": "%"}, {"measurement": "share of total drug concentration", "setting": "[4]; sc 7, plasma, 0.5 hour", "value": 5, "unit": "%"}, {"measurement": "share of drug (parent+metabolite)", "setting": "[4]; sc 8, 300 μmol/kg, liver, 0.5 hour", "value": 53, "unit": "%"}, {"measurement": "detection in liver", "setting": "[4]; sc 8, 300 μmol/kg, liver, 8 hours", "value": "very little parent alcohol 8"}, {"measurement": "proportion of 8 converted to 9", "setting": "[4]; sc 8, 300 μmol/kg, plasma, 0.5 hour post drug", "value": "~60", "unit": "%"}, {"measurement": "detection in plasma", "setting": "[4]; sc 8, 300 μmol/kg, plasma, 8 hour", "value": "Neither the parent 8 nor the metabolite 9 was found at the 8 hour time point"}, {"measurement": "conversion of 8 to 9", "setting": "[4]; sc 8, 300 μmol/kg, tissues", "value": "very efficiently oxidized to carboxylic acid 9; also recorded: very efficiently converted to acid 9; also recorded: very quickly oxidized to 9"}]}
{"smiles": "COCCCCCCOc1ccc(C2=N[C@@](C)(C(=O)O)CS2)c(O)c1", "note": "[Compound 10, (S)-4,5-dihydro-2-[2-hydroxy-4-(6-methoxyhexyloxy)phenyl]-4-methyl-4-thiazolecarboxylic acid]", "values": [{"measurement": "Log Papp", "setting": "[1]", "value": 0.95}, {"measurement": "time of death post drug", "setting": "[3]; po 300 μmol/kg, bile duct-cannulated rats, one animal", "value": "about 22 hours"}, {"measurement": "drug-induced iron excretion, peak", "setting": "[3]; po 300 μmol/kg, 6 hours post drug", "value": "300 μg/kg of iron"}, {"measurement": "drug-induced iron excretion", "setting": "[3]; po 300 μmol/kg, 24 hours post dosing", "value": "80 μg/kg of iron"}, {"measurement": "Rat ICE (%)", "setting": "[3]; po", "value": "15.8 ± 3.7", "unit": "%"}, {"measurement": "overt toxicity", "setting": "[3]; rats, po 300 μmol/kg, single dose", "value": "profoundly toxic; also recorded: very toxic; also recorded: Toxic in Rats"}]}
{"smiles": "C[C@]1(C(=O)O)CSC(c2ccc(OCCCCCC(=O)O)cc2O)=N1", "note": "[Compound 12, (S)-4,5-dihydro-2-[2-hydroxy-4-(5-carboxypentyloxy)phenyl]-4-methyl-4-thiazolecarboxylic acid]", "values": [{"measurement": "Log Papp", "setting": "[1]", "value": "−1.90"}, {"measurement": "Cebus ICE (%)", "setting": "[2]; po", "value": "10.6±4.0", "unit": "%"}, {"measurement": "Cebus ICE (%)", "setting": "[2]; sc", "value": "18.8±8.7", "unit": "%"}, {"measurement": "Rat ICE (%)", "setting": "[3]; po", "value": "8.8 ± 1.8", "unit": "%"}, {"measurement": "Rat ICE (%)", "setting": "[3]; sc", "value": "6.5 ± 1.5", "unit": "%"}, {"measurement": "detection in heart", "setting": "[4]; sc 11, heart", "value": "not found in the cardiac tissue at any of the time points"}, {"measurement": "detection in kidney", "setting": "[4]; sc 11, kidney", "value": "found at 0.5 and 1 hour post drug"}, {"measurement": "detection in liver", "setting": "[4]; sc 11, liver", "value": "not detected in the liver 2, 4, or 8 hours post dosing"}, {"measurement": "share of total drug (parent+metabolites)", "setting": "[4]; sc 11, liver, 0.5 hour", "value": 11, "unit": "%"}, {"measurement": "share of total drug (parent+metabolites)", "setting": "[4]; sc 11, liver, 1 hour", "value": 2, "unit": "%"}, {"measurement": "detection in pancreas", "setting": "[4]; sc 11, pancreas", "value": "not found at any of the time points"}, {"measurement": "detection in plasma", "setting": "[4]; sc 11, plasma", "value": "None of the first oxidation product of alcohol 11, the dicarboxylic acid 12, was detected in the plasma"}]}
{"smiles": "C[C@]1(C(=O)O)CSC(c2ccc(OCCCC(=O)O)cc2O)=N1", "note": "[Compound 13, (S)-4,5-dihydro-2-[2-hydroxy-4-(3-carboxypropyloxy)phenyl]-4-methyl-4-thiazolecarboxylic acid]", "values": [{"measurement": "Log Papp", "setting": "[1]", "value": "−2.21"}, {"measurement": "Cebus ICE (%)", "setting": "[2]; po", "value": "5.4±1.5", "unit": "%"}, {"measurement": "Cebus ICE (%)", "setting": "[2]; sc", "value": "18.1±7.5", "unit": "%"}, {"measurement": "Rat ICE (%)", "setting": "[3]; po", "value": "3.7 ± 1.7", "unit": "%"}, {"measurement": "Rat ICE (%)", "setting": "[3]; sc", "value": "4.3 ± 1.1", "unit": "%"}, {"measurement": "detection in heart", "setting": "[4]; sc 11, heart", "value": "not found in the later time points"}, {"measurement": "tissue concentration", "setting": "[4]; sc 11, heart, 0.5 hour", "value": "~46", "unit": "nmol/g wet weight"}, {"measurement": "tissue concentration", "setting": "[4]; sc 11, heart, 1 hour", "value": "~46", "unit": "nmol/g wet weight"}, {"measurement": "detection in kidney", "setting": "[4]; sc 11, kidney", "value": "not detectable 8 hours post dosing"}, {"measurement": "tissue concentration", "setting": "[4]; sc 11, kidney, 0.5 hour", "value": "~300", "unit": "nmol/g wet weight"}, {"measurement": "tissue concentration", "setting": "[4]; sc 11, kidney, 1 hour", "value": "~300", "unit": "nmol/g wet weight"}, {"measurement": "detection in liver", "setting": "[4]; sc 11, liver", "value": "no 13 remained in the liver"}, {"measurement": "share of total drug (parent+metabolites)", "setting": "[4]; sc 11, liver, 0.5 hour", "value": 71, "unit": "%"}, {"measurement": "share of total drug (parent+metabolites)", "setting": "[4]; sc 11, liver, 1 hour", "value": 59, "unit": "%"}, {"measurement": "share of total drug (metabolites)", "setting": "[4]; sc 11, liver, 2 hours", "value": 66, "unit": "%"}, {"measurement": "share of total drug (metabolites)", "setting": "[4]; sc 11, liver, 4 hours", "value": 70, "unit": "%"}, {"measurement": "tissue concentration", "setting": "[4]; sc 11, pancreas, 0.5 hour", "value": 19, "unit": "nmol/g wet weight"}, {"measurement": "tissue concentration", "setting": "[4]; sc 11, pancreas, 1 hour", "value": 23, "unit": "nmol/g wet weight"}, {"measurement": "share of total (parent+metabolites)", "setting": "[4]; sc 11, plasma, 0.5 hour", "value": 62, "unit": "%"}, {"measurement": "share of total (parent+metabolites)", "setting": "[4]; sc 11, plasma, 4 hours", "value": 50, "unit": "%"}, {"measurement": "share of total (parent+metabolites)", "setting": "[4]; sc 11, plasma, 8 hours", "value": 65, "unit": "%"}]}
